Measured values published in patent US5098900A, “3(2H)pyridazinone, process for its preparation and anti-allergic agent containing it” (Nissan Chemical Industries Ltd., priority 1984, dated 1992).

Key:
[1] = test system: LTD4; assay: LTD4 antagonism in isolated guinea-pig trachea (LTD4-induced contraction); format: cell-based; conditions: Cavia porcellus, 5 min, test compound 10^-5 g/ml, LTD4 2×10^-8 g/ml
Description: (§1) (ii) LTC4 and LTD4 antagonisms in guinea-pig trachea
(§2) Antagonism for LTC4 and LTD4 were determined in isolated guinea-pig trachea prepared as spiral strip. 10 Tracheal preparations were suspended under 1 g tension in […] and they were incubated for 1 hr prior to use. Contractile responses to LTC4 (2×10^-8 g/ml) and LTD4 (2×10^-8 g/ml) were obtained after the maximal response to histamine (10^-4 M). Test compounds dissolved in 100% dimethyl sulfoxide were added to the organ baths (final concentration of 10^-5 g/ml) 5 min prior to LTC4 and LTD4 addition, and then contractile responses to LTC4 and LTD4 were compared with those of control which was obtained from a paired trachea in the absence of test compounds. LTC4 - and LTD4 -induced contractions were expressed as a percentage of the maximal response to histamine. The antagonism was determined as follows: Antagonism (%)=(1.0-% contraction in test/% contraction in control)×100

[2] = test system: LTC4; assay: LTC4 antagonism in isolated guinea-pig trachea (LTC4-induced contraction); format: cell-based; conditions: 5 min, test compound 10^-5 g/ml, LTC4 2×10^-8 g/ml, guinea-pig trachea; for inhibition at 10 µg/mL: Cavia porcellus, read-out: LTC4 antagonism
Description: as §1, §2

[3] = test system: antigen-induced anaphylactic bronchoconstriction; assay: Effect on anaphylactic bronchoconstriction in passively sensitized guinea-pig; format: in vivo; conditions: 2 mg/kg, i.v.
Description: (iii) Effect on anaphylactic bronchoconstriction in passively sensitized guinea-pig
Male guinea-pigs (350-450 g) were passively sensitized with intravenous (i.v.) injection of 0.125 ml rabbit anti-EA serum (Cappel Laboratories) 1 day preceding the experiment. […] The right jugular vein was cannulated for the administration of the all agents and trachea was cannulated to record total pulmonary resistance. Guinea-pigs were artificially ventilated by a small animal respirator (Shinano, Model SN-480-7) set at a stroke volume of 4-5 ml and a rate of 50 breaths per min. […] The increase in air overflow volume was expressed as a percentage of the maximum bronchoconstriction obtained by clamping off the trachea. Following surgical preparation, the animals were pretreated with indomethacin (1.0 mg/kg, 10 min), pyrilamine (2 mg/kg, 6 min) and propranolol (0.1 mg/kg, 5 min) prior to the EA challenge (0.1 or 10 mg/kg). All test compounds, 2 mg/kg in 3% Tween 80 or 3% PEG-400, were administered 1 min before the EA challenge. Inhibition (%) of bronchoconstriction was determined as follows Inhibition (%)=(1.0% -maximum bronchoconstriction in test/% maximum bronchoconstriction in control) ×100.
In the Table, the dose of EA was 10 mg/kg, and each compound was dissolved or suspended in 3% Tween 80.
In the Table, the dose of EA was 0.1 mg/kg.
*: PEG represents polyethylene glycol400.

[4] = test system: ddY strain male; assay: Acute toxicity test, method-(2), intraperitoneal injection; format: in vivo, ddY strain male (4 weeks old); conditions: 7 days
Description: The lethal ratio was determined in ddY strain male (4 weeks old) at 7 days after the intraperitoneal injection of test compounds.

[5] = EA 0.1 mg/kg, PEG (polyethylene glycol 400)

| Compound | inhibition at 10 µg/mL [1] [%] | inhibition at 10 µg/mL [2] [%] | Lethal ratio (Death number/Experimental number) ([4]; 200 mg/kg) | also measured |
| --- | --- | --- | --- | --- |
| CCn1ncc(NCc2cccc(OC)c2)c(Cl)c1=O [Compound No. 6] | 62 | 33 | – | – |
| CCn1ncc(NCc2ccc(OC)c(OC)c2)c(Cl)c1=O [Compound No. 13] | 76 | – | – | Inhibition of anaphylactic bronchoconstriction ([3]; EA 10 mg/kg, 3% Tween 80): 43% |
| CCCn1ncc(NCc2ccc(OC)c(OC)c2)c(Cl)c1=O [Compound No. 14, 4-Chloro-5-(3,4-dimethoxybenzylamino)-2-n-propyl-3-(2H)pyridazinone] | 36 | 100 | – | Inhibition of anaphylactic bronchoconstriction ([3]; EA 10 mg/kg, 3% Tween 80): 28% |
| COc1ccc(CNc2cnn(C(C)C)c(=O)c2Cl)cc1OC [Compound No. 15] | 80 | 100 | – | Inhibition of anaphylactic bronchoconstriction ([3]; EA 10 mg/kg, 3% Tween 80): 56% |
| CCCN(CCC)Cc1ccc(CN(C)c2cnn(C(C)(C)C)c(=O)c2Cl)cc1 [Compound No. 43, 4-Chloro-5-(4-di-n-propylaminomethyl-N-methylbenzylamino)-2-t-butyl-3(2H)pyridazinone] | – | 57 | – | Inhibition of anaphylactic bronchoconstriction ([3]; EA 10 mg/kg, 3% Tween 80): 14% |
| CC(C)n1ncc(NCc2ccccc2)c(Cl)c1=O [Compound No. 74, 4-Chloro-5-(benzylamino)-2-i-propyl-3(2H)pyridazinone] | 91 | – | – | Inhibition of anaphylactic bronchoconstriction ([3]; EA 0.1 mg/kg, Tween 80): 31% |
| Cc1ccc(CNc2cnn(C(C)C)c(=O)c2Cl)c(C)c1 [Compound No. 80] | 99 | – | 0/2 | Lethal ratio (Death number/Experimental number) ([4]; 400 mg/kg): 0/1 |
| COc1ccc(CNc2cnn(C(C)C)c(=O)c2Cl)cc1 [Compound No. 87] | 100 | – | 0/2 | Lethal ratio (Death number/Experimental number) ([4]; 400 mg/kg): 0/2; Inhibition of anaphylactic bronchoconstriction ([3]; EA 0.1 mg/kg, Tween 80): 61% |
| CCOc1cccc(CNc2cnn(C(C)C)c(=O)c2Cl)c1 [Compound No. 89] | 95 | 89 | 0/2 | Lethal ratio (Death number/Experimental number) ([4]; 400 mg/kg): 0/1; Inhibition of anaphylactic bronchoconstriction [3, 5]: 79% |
| CC(C)(C)n1ncc(NCc2ccc(/C=C/C(=O)O)cc2)c(Cl)c1=O [compound 24] | – | 7 | – | – |
| CCN(CC)c1ccc(CNc2cnn(C(C)(C)C)c(=O)c2Cl)cc1 [compound 29] | – | 68 | – | – |
| CC(C)(C)n1ncc(NCc2ccc(C(=O)N3CCOCC3)cc2)c(Cl)c1=O [compound 40] | – | 17 | – | – |
| CN(C)Cc1ccc(CNc2cnn(C(C)(C)C)c(=O)c2Cl)cc1 [compound 48] | – | 30 | – | – |
| CCN1CCN(Cc2ccc(CNc3cnn(C(C)(C)C)c(=O)c3Cl)cc2)CC1 [compound 49] | – | – | – | LTC4 antagonism [2]: 8% |
| COC(=O)/C=C/c1ccc(CNc2cnn(C(C)(C)C)c(=O)c2Cl)cc1 [compound 53] | 38 | – | – | Inhibition of anaphylactic bronchoconstriction ([3]; EA 10 mg/kg, 3% Tween 80): 38% |
| CN(C)CCCNC(=O)c1ccc(CNc2cnn(C(C)(C)C)c(=O)c2Cl)cc1 [compound 59] | – | 17 | – | – |
| Cc1cccc(CNc2cnn(C(C)C)c(=O)c2Cl)c1 [compound 76] | 97 | – | 0/2 | Lethal ratio (Death number/Experimental number) ([4]; 400 mg/kg): 0/1 |
| Cc1ccc(CNc2cnn(C(C)C)c(=O)c2Cl)cc1 [compound 77] | 90 | – | 0/2 | Lethal ratio (Death number/Experimental number) ([4]; 400 mg/kg): 0/2 |
| Cc1ccccc1CNc1cnn(C(C)C)c(=O)c1Cl [compound 78] | 97 | – | 0/2 | Lethal ratio (Death number/Experimental number) ([4]; 400 mg/kg): 0/1 |
| CCn1ncc(NCc2ccc(C)cc2C)c(Cl)c1=O [compound 79] | 100 | – | 0/2 | Inhibition of anaphylactic bronchoconstriction ([3]; EA 0.1 mg/kg, Tween 80): 61% |
| CCOc1ccccc1CNc1cnn(CC)c(=O)c1Cl [compound 90] | 96 | – | 0/2 | Lethal ratio (Death number/Experimental number) ([4]; 400 mg/kg): 0/2 |
| CCOc1ccc(CNc2cnn(C(C)C)c(=O)c2Cl)cc1 [compound 91] | 93 | – | – | Lethal ratio (Death number/Experimental number) ([4]; 100 mg/kg): 0/2; Inhibition of anaphylactic bronchoconstriction [3, 5]: 73% |
| CCCOc1cccc(CNc2cnn(CC)c(=O)c2Cl)c1 [compound 93] | 96 | 93 | – | – |
| CCCOc1cccc(CNc2cnn(C(C)C)c(=O)c2Cl)c1 [compound 94] | 75 | 83 | 0/2 | – |
| CCn1ncc(NCc2ccc(OC)cc2OC)c(Cl)c1=O [compound 99] | 99 | – | – | Lethal ratio (Death number/Experimental number) ([4]; 100 mg/kg): 0/2 |
| CCOc1cc(CNc2cnn(CC)c(=O)c2Cl)ccc1OC [compound 102] | 86 | 97 | – | Lethal ratio (Death number/Experimental number) ([4]; 100 mg/kg): 0/2 |
